One data set deals with HIV-1 protease (Human immunodeficiency virus type 1 group M subtype B, UniProt P04585). As to the kind of experiment: Fluorogenic Assay for Screening Inhibitors of HIV Protease.
In another data set the test system is uninfected MT4 cells. The data set can be described thus: Cytotoxicity in uninfected MT4 cells (MTT). It counts as cell-based. To be noted: 5 days, n=four duplicate determinations, read-out: CTC50 (50% cytotoxicity concentration). The essentials: (§1)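 Uninfected MT4 cells, 1×10^4 per well, incubated 5 days at 37 °C with half-log compound dilutions. Viability read by MTT-type OD at 570/650 nm after SDS/HCl lysis overnight. CTC50 taken as 50% cytotoxicity concentration.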

The test system of a further data set is HIVIIIB. The data set can be described thus: Antiviral Activity: anti-HIV activity in MT4 cells infected with HIVIIIB (MTT). Type of data set: cell-based. To be noted: MOI 0.003, 5 days, n=four duplicate determinations. Summed up: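 MT4 cells infected 1 h with HIVIIIB at 0.003 MOI, washed, seeded at 1×10^4 cells/well with half-log compound dilutions in RPMI 1640 plus 10% FBS and added human serum (final 60%, 35% or 22.5% total serum), 5 days at 37 °C. Viability read by MTT at 570/650 nm; EC50 by median effect equation, CTC50 on uninfected MT4 cells.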

Data set [1] is described as follows: Cytotoxicity in uninfected MT4 cells (MTT). It counts as cell-based. To be noted: human, 5 days, n=four duplicate determinations, read-out: CTC50 (50% cytotoxicity concentration). Summed up: as §1
Data set [2] can be described thus: Effect of ritonavir on pharmacokinetics of the co-administered compound of this invention. The conditions noted are these: ritonavir in combination with a compound of this invention. It counts as in vivo.
The mark [3] stands for this setting: Human immunodeficiency virus 1, 120 h.

Each structure is given as a SMILES string.

Method for HIV-1 protease: The inhibitory potency of the compounds of the invention were determined by the following method: The compound of the invention was dissolved in DMSO and a small aliquot further diluted with DMSO to 100 times the final concentration desired for testing. The reaction was carried out in a 6×50 mm tube in a total volume of 300 microliters. […] After addition of inhibitor, the reaction mixture was placed in the fluorometer cell holder and incubated at 30° C. for several minutes. The reaction was initiated by the addition of a small aliquot of cold HIV protease. The fluorescence intensity (excitation 340 nm, emission 490 nm) was recorded as a function of time. The reaction rate was determined for the first six to eight minutes. The observed rate was directly proportional to the moles of substrate cleaved per unit time. The percent inhibition was calculated according to the equation: 100×(1-(rate of inhibitor)/(rate in absence of inhibitor)). As a control, duplicate reactions were performed identically as above but without the addition of an inhibitor compound.

For the compound `Cc1ccc(OCC(=O)N[C@@H](Cc2ccccc2)C[C@H](O)[C@H](Cc2ccccc2)NC(=O)O[C@H]2CO[C@H]3OCC[C@H]32)c(C)n1` [Example 10, (2S,3S,5S)-5-(2,6-Dimethyl-pyridin-3-yl-oxyacetyl)amino-2-((3R,3aS,6aR)-bis-tetrahydrofuran-3-yl-oxycarbonyl)amino-1,6-diphenyl-3-hydroxyhexane], the % Inhibition (as a rule, the percentage by which the read-out fell short of the control) on HIV-1 protease (0.5 nM inhibitor, pH 4.5, 30° C.) is listed as 49%. The CC50 in the data set with uninfected MT4 cells was more than 100 µM. In the data set with HIVIIIB, the EC50 (commonly the concentration at which the effect is half-maximal) was 0.184 µM.

On to `Cc1nc(CN(C)C(=O)N[C@H](C(=O)N[C@@H](Cc2ccccc2)C[C@H](O)[C@H](Cc2ccccc2)NC(=O)OC2COC3OCCC23)C(C)C)cs1` (stereo partly drawn) [Example 52, (2S,3S,5S)-5-(N-(N-((N-Methyl-N-((2-methyl-4-thiazolyl)methyl)amino)carbonyl)-L-valinyl)amino)-2-((3R,3aS,6aR),(3S,3aR,6aS)-bis-tetrahydrofuran-3-yl-oxycarbonyl)amino-1,6-diphenyl-3-hydroxyhexane], for which, on HIV-1 protease (pH 4.5), the inhibition – broadly, the drop in the measured response relative to a control, in per cent – at 0.0005 µM was found to be 69%. Further, the CC50 at 120 h in data set [1] is more than 100 µM. The half-maximal effective concentration (EC50) with HIVIIIB (setting [3]) stood at 0.072 µM.

The compound `O=C(N[C@@H](Cc1ccccc1)[C@@H](O)C[C@H](Cc1ccccc1)NC(=O)c1ccc(O)cc1)O[C@@H]1CO[C@@H]2OCC[C@@H]21` [Example 53, (2S,3S,5S)-5-(4-Hydroxy-benzoyl)amino-2-((3S,3aR,6aS)-bis-tetrahydrofuran-3-yl-oxycarbonyl)amino-1,6-diphenyl-3-hydroxyhexane] gave an inhibition at 0.001 µM against HIV-1 protease (pH 4.5) of 56%. Further, the CC50 at 120 h in data set [1] is more than 100 µM. The compound further had a concentration for a half-maximal effect (EC50) in the data set with HIVIIIB (setting [3]) of 0.704 µM.

At HIV-1 protease (pH 4.5), `CC(=O)Oc1ccc(C(=O)N[C@@H](Cc2ccccc2)C[C@H](O)[C@H](Cc2ccccc2)NC(=O)O[C@H]2CO[C@H]3OCC[C@H]32)cc1` [Example 54, (2S,3S,5S)-5-(4-Acetoxy-benzoyl)amino-2-((3R,3aS,6aR)-bis-tetrahydrofuran-3-yl-oxycarbonyl)amino-1,6-diphenyl-3-hydroxyhexane] gave an inhibition at 0.0014 µM of 50%. The CC50 at 120 h in data set [1] is more than 100 µM. The EC50 with HIVIIIB (setting [3]) is 0.145 µM.

As to `O=C(N[C@@H](Cc1ccccc1)[C@@H](O)C[C@H](Cc1ccccc1)NC(=O)c1ccc(O)cc1)O[C@H]1CO[C@H]2OCC[C@H]21` [Example 55, (2S,3S,5S)-5-(4-Hydroxy-benzoyl)amino-2-((3R,3aS,6aR)-bis-tetrahydrofuran-3-yl-oxycarbonyl)amino-1,6-diphenyl-3-hydroxyhexane], the inhibition at 0.0005 µM at HIV-1 protease (pH 4.5) was 82%. Also, the CC50 at 120 h in data set [1] is 49.5 µM. A half-maximal response in the data set with HIVIIIB (setting [3]) (EC50) required 0.011 µM.

On HIV-1 protease (pH 4.5), `O=C(N[C@@H](Cc1ccccc1)[C@@H](O)C[C@H](Cc1ccccc1)NC(=O)c1ccc(O)cc1Cl)O[C@H]1CO[C@H]2OCC[C@H]21` [Example 57, (2S,3S,5S)-5-(2-Chloro-4-hydroxy-benzoyl)amino-2-((3R,3aS,6aR)-bis-tetrahydrofuran-3-yl-oxycarbonyl)amino-1,6-diphenyl-3-hydroxyhexane] gave an inhibition at 0.0005 µM of 78%. For the same compound, the CC50 at 120 h in data set [1] came to 80.9 µM. The compound further displayed a concentration for a half-maximal effect (EC50) in the data set with HIVIIIB (setting [3]) of 0.12 µM.

`O=C(N[C@@H](Cc1ccccc1)[C@@H](O)C[C@H](Cc1ccccc1)NC(=O)c1cccc(O)c1)O[C@@H]1CO[C@@H]2OCC[C@@H]21` [Example 58, (2S,3S,5S)-5-(3-Hydroxy-benzoyl)amino-2-((3S,3aR,6aS)-bis-tetrahydrofuran-3-yl-oxycarbonyl)amino-1,6-diphenyl-3-hydroxyhexane] gave an inhibition at 0.0011 µM against HIV-1 protease (pH 4.5) of 50%. Further, the CC50 at 120 h in data set [1] was more than 100 µM. The compound further came in with an EC50 in the data set on HIVIIIB (setting [3]) of 2.61 µM.

The compound `Cc1c(O)cccc1C(=O)N[C@@H](Cc1ccccc1)[C@@H](O)C[C@H](Cc1ccccc1)NC(=O)O[C@H]1CO[C@H]2OCC[C@H]21` [Example 59, (2S,3S,5S)-2-(3-Hydroxy-2-methyl-benzoyl)amino-5-((3R,3aS,6aR)-bis-tetrahydrofuran-3-yl-oxycarbonyl)amino-1,6-diphenyl-3-hydroxyhexane] returned an inhibition at 0.0005 µM against HIV-1 protease (pH 4.5) of 67%. Moreover, in data set [1], the CC50 at 120 h was more than 100 µM. A half-maximal effect with HIVIIIB (setting [3]) (EC50) was put at 0.153 µM.

`Cc1c(O)cccc1C(=O)N[C@@H](Cc1ccccc1)[C@@H](O)C[C@H](Cc1ccccc1)NC(=O)O[C@@H]1CO[C@@H]2OCC[C@@H]21` [Example 60, (2S,3S,5S)-2-(3-Hydroxy-2-methyl-benzoyl)amino-5-((3S,3aR,6aS)-bis-tetrahydrofuran-3-yl-oxycarbonyl)amino-1,6-diphenyl-3-hydroxyhexane] showed an inhibition at 0.0022 µM at HIV-1 protease (pH 4.5) of 50%. The CC50 at 120 h in data set [1] is more than 100 µM. This compound displayed a 50% effective concentration (EC50) with HIVIIIB (setting [3]) of 1.12 µM.

In turn, `Nc1ccc(Cl)c(C(=O)N[C@@H](Cc2ccccc2)[C@@H](O)C[C@H](Cc2ccccc2)NC(=O)O[C@H]2CO[C@H]3OCC[C@H]32)c1` [Example 62, (2S,3S,5S)-2-(3-Amino-6-chloro-benzoyl)amino-5-((3R,3aS,6aR)-bis-tetrahydrofuran-3-yl-oxycarbonyl)amino-1,6-diphenyl-3-hydroxyhexane] registered an inhibition at 0.0005 µM against HIV-1 protease (pH 4.5) of 70%. In addition, the CC50 at 120 h in data set [1] is more than 100 µM. For the same compound, in the data set on HIVIIIB (setting [3]), the EC50 came to 0.081 µM.

As for `Nc1ccc(Cl)c(C(=O)N[C@@H](Cc2ccccc2)[C@@H](O)C[C@H](Cc2ccccc2)NC(=O)O[C@@H]2CO[C@@H]3OCC[C@@H]32)c1` [Example 63, (2S,3S,5S)-2-(3-Amino-6-chloro-benzoyl)amino-5-((3S,3aR,6aS)-bis-tetrahydrofuran-3-yl-oxycarbonyl)amino-1,6-diphenyl-3-hydroxyhexane], on HIV-1 protease (pH 4.5), testing at 0.0029 µM gave an inhibition of 50%. In addition, the CC50 at 120 h in data set [1] was more than 100 µM. The midpoint of the response in the data set with HIVIIIB (setting [3]), the EC50, lay at 1.56 µM.

In the case of `O=C(N[C@@H](Cc1ccccc1)C[C@H](O)[C@H](Cc1ccccc1)NC(=O)c1ccc(O)cc1)O[C@H]1CO[C@H]2OCC[C@H]21` [Example 64, (2S,3S,5S)-2-(4-Hydroxy-benzoyl)amino-5-((3R,3aS,6aR)-bis-tetrahydrofuran-3-yl-oxycarbonyl)amino-1,6-diphenyl-3-hydroxyhexane], testing at 0.0005 µM against HIV-1 protease (pH 4.5) gave an inhibition of 64%. The CC50 at 120 h in data set [1] is more than 100 µM. In addition, the EC50 with HIVIIIB (setting [3]) was determined as 0.2 µM.

In the case of `O=C(N[C@@H](Cc1ccccc1)C[C@H](O)[C@H](Cc1ccccc1)NC(=O)c1ccccc1)O[C@H]1CO[C@H]2OCC[C@H]21` [Example 68, (2S,3S,5S)-2-(Benzoyl)amino-5-((3R,3aS,6aR)-bis-tetrahydrofuran-3-yl-oxycarbonyl)amino-1,6-diphenyl-3-hydroxyhexane], the inhibition at 0.0005 µM on HIV-1 protease (pH 4.5) is 65%. Moreover, the CC50 at 120 h in data set [1] is more than 32 µM. The compound also had an EC50 in the data set with HIVIIIB (setting [3]) of 0.233 µM.

On to `Nc1ccc(C(=O)N[C@@H](Cc2ccccc2)[C@@H](O)C[C@H](Cc2ccccc2)NC(=O)O[C@H]2CO[C@H]3OCC[C@H]32)c(Cl)c1` [Example 71, (2S,3S,5S)-2-(4-Amino-2-chloro-benzoyl)amino-5-((3R,3aS,6aR)-bis-tetrahydrofuran-3-yl-oxycarbonyl)amino-1,6-diphenyl-3-hydroxyhexane], for which the inhibition at 0.0005 µM against HIV-1 protease (pH 4.5) worked out at 72%. Also, the CC50 at 120 h in data set [1] was more than 100 µM. Besides, the EC50 with HIVIIIB (setting [3]) was 0.101 µM.

Turning to `Cc1ccc(O)c(C)c1OCC(=O)N[C@@H](Cc1ccccc1)C[C@H](O)[C@H](Cc1ccccc1)NC(=O)O[C@H]1CO[C@H]2OCC[C@H]21` [Example 74, (2S,3S,5S)-5-(2,6-Dimethyl-3-hydroxy-phenoxyacetyl)amino-2-((3R,3aS,6aR)-bis-tetrahydrofuran-3-yl-oxycarbonyl)amino-1,6-diphenyl-3-hydroxyhexane], testing at 0.0005 µM against HIV-1 protease (pH 4.5) gave an inhibition of 89%. Besides, in data set [1], the CC50 at 120 h is 50.5 µM. The compound also showed an EC50 in the data set with HIVIIIB (setting [3]) of 0.007 µM.

For `CC(C)c1nc(CN(C)C(=O)N[C@H](C(=O)N[C@@H](Cc2ccccc2)C[C@H](O)[C@H](Cc2ccccc2)NC(=O)OCc2cncs2)C(C)C)cs1` [ritonavir], in data set [2], the “blood levels of the co-administered compound of this invention” value is “increases blood levels”, the “half-life of the co-administered compound of this invention” value is on record as “increases half-life” and the “time to peak plasma concentration of the co-administered compound of this invention” value was “increases the time to peak plasma concentration”.

(Values after US5905068A, “Retroviral protease inhibiting compounds” (Abbott Laboratories, priority 1996, dated 1999).)
